From patent US20080182880A1, “PIOGLITAZONE COMPOSITION” (priority 2006, published 2008)
Like-named read-outs stand apart in the source and are kept apart here.

Experiment: Comparative bioavailability of Trial 2 of Example 4 and ACTOS tablets 45 mg, open label randomized cross-over single dose study, fasting, 55 subjects
Type: in vivo
Conditions: human, plasma, oral, calculated from Table 6 results, single dose to humans
Experimental: In determining bioequivalence, for example, between two products such as a commercially available product and a proposed product, pharmacokinetic studies are conducted whereby each of the preparations is administered in a crossover study to volunteer subjects. Serum plasma samples are obtained at regular intervals and assayed for parent drug (or occasionally metabolite) concentrations. For a pharmacokinetic comparison, the plasma concentration data are used to assess key pharmacokinetic parameters such as area under the plasma concentration-time curve (AUC), peak concentration (Cmax) and time to peak plasma concentration (Tmax).
R represents reference product, i.e., ACTOS tablets 45 mg.
Study design: Open label randomized cross-over single dose study under fasting conditions.

`CCc1ccc(CCOc2ccc(CC3SC(=O)NC3=O)cc2)nc1` (racemic) [Pioglitazone, (±)-5-[[4-[2-(5-ethyl-2-pyridinyl)ethoxy]phenyl]methyl]-2,4-]thiazolidinedione] showed an AUC(0-inf) (read-out: therapeutically equivalent range of plasma pioglitazone AUC0-∞) of 12.3 to 19.1 µg·h/mL, an AUC(0-inf) (read-out: therapeutically equivalent range of plasma pioglitazone AUC0-∞T) of 11.9 to 18.5 µg·h/mL and a Cmax (read-out: therapeutically equivalent range of plasma pioglitazone Cmax) of 1.03 to 1.61 µg/mL.
